SMILES strings stand for the structures. Converted amounts (≈) assume the structure as drawn.

Common to all, as to experiment: ≥ marks a high value that may be exact or a test limit, other limits are often not marked, values filed in µg/mL are converted to µM
The test system of assay [1] is Candida albicans NCYC 1467.
Assay [2] has as its system Escherichia coli NCTC 10418.
The test system of assay [3] is Pseudomonas aeruginosa ATCC 27853.
For assay [4], the system named is Staphylococcus aureus ATCC 12493.
Assay [5] has as its system Staphylococcus aureus NCTC 10788.
The test system of assay [6] is Candida albicans NCPF 1467.
In assay [7] the test system is Bacillus cereus ATCC 14579.
The subject of assay [8] is Bacillus subtilis ATCC 23857.
Assay [9] concerns Candida albicans ATCC 90028.
In assay [10] the test system is Cryptococcus neoformans ATCC 28957.
In assay [11] the test system is Escherichia coli ATCC 25922.
Assay [12] relates to Fusarium oxysporum f.sp. vasinfectum.
For assay [13], the system named is Fusarium oxysporum.
Assay [14] has as its system Fusarium solani.
For assay [15], the system named is Pectobacterium carotovorum.
In assay [16] the test system is Pseudomonas syringae pv. tabaci.
The subject of assay [17] is Ramulariopsis gossypii.
Assay [18] deals with Staphylococcus aureus ATCC 25923.
Assay [19] deals with Trichoderma asperellum.
In assay [20] the test system is Xanthomonas campestris pv. citri.
The test system of assay [21] is Bacillus subtilis CMCC 63501.
For assay [22], the system named is Enterococcus faecalis ATCC 29212.
The test system of assay [23] is Escherichia coli UB1005.
In assay [24] the test system is Salmonella enterica subsp. enterica serovar Pullorum C79-13.
The test system of assay [25] is Salmonella typhimurium ATCC 7731.
Assay [26] relates to Staphylococcus aureus ATCC 29213.
Assay [27] has as its system Staphylococcus aureus ATCC 43300.
The subject of assay [28] is Staphylococcus epidermidis ATCC 12228.
The subject of assay [29] is Bacillus megaterium Bm11.
Assay [30] deals with Escherichia coli D21.
Assay [31] concerns Escherichia coli ML-35.
Assay [32] concerns Salmonella enterica subsp. enterica serovar Typhimurium ATCC 14028.
Assay [33] has as its system Serratia marcescens ATCC 8100.
In assay [34] the test system is Candida albicans.
Assay [35] deals with Candida krusei CGMCC 2.1857.
The test system of assay [36] is Candida parapsilosis CGMCC 2.3989.
The subject of assay [37] is Candida tropicalis CGMCC 2.1975.
Assay [38] concerns Escherichia coli 1005.
The test system of assay [39] is Salmonella enterica subsp. enterica serovar Pullorum ATCC 7913.
The subject of assay [40] is Escherichia coli K12 MG1655.

In the case of `CC[C@H](C)[C@@H]1NC(=O)[C@H](CO)NC(=O)[C@H](CCCCN)NC(=O)[C@H]([C@@H](C)O)NC(=O)[C@H](Cc2c[nH]c3ccccc23)NC(=O)[C@@H](NC(=O)CNC(=O)[C@H](CCCN=C(N)N)NC(=O)[C@H](CC(C)C)NC(=O)[C@H](C)N)CSSC[C@@H](C(=O)N[C@@H](CCCCN)C(N)=O)NC(=O)[C@@H]2CCCN2C(=O)[C@H](CCCCN)NC(=O)[C@@H]2CCCN2C(=O)[C@@H]2CCCN2C1=O` [ALRGCWTKSIPPKPCK], the MIC in assay [1] was not below 512 µM; in assay [2], not below 512 µM; in [3], more than 512 µM; in [4], not below 512 µM; in [5], not below 512 µM.
Take `CC[C@H](C)[C@H](NC(=O)CN)C(=O)NCC(=O)NCC(=O)N[C@@H](C)C(=O)N[C@@H](CC(C)C)C(=O)N[C@@H](CC(C)C)C(=O)N[C@@H](CO)C(=O)N[C@@H](Cc1ccccc1)C(=O)NCC(=O)N[C@@H](CCCCN)C(=O)N[C@@H](CO)C(=O)N[C@@H](C)C(=O)N[C@@H](CC(C)C)C(=O)N[C@@H](CCCCN)C(=O)NCC(=O)N[C@@H](CC(C)C)C(=O)N[C@@H](C)C(=O)N[C@@H](CCCCN)C(=O)NCC(=O)N[C@@H](CC(C)C)C(=O)N[C@@H](C)C(=O)N[C@@H](CCC(=O)O)C(=O)N[C@@H](Cc1cnc[nH]1)C(=O)N[C@@H](Cc1ccccc1)C(N)=O` [GIGGALLSFGKSALKGLAKGLAEHF]: the minimum inhibitory concentration (MIC) in assay [6] turned out to be 1.64 µM (≈ 4 µg/mL); in assay [2], 6.55 µM (≈ 16 µg/mL); in [3], 26.2 µM (≈ 64 µg/mL); in assay [4], 6.55 µM (≈ 16 µg/mL); in [5] it was 1.64 µM (≈ 4 µg/mL).
On to `CSCC[C@H](NC(=O)[C@H](Cc1ccccc1)NC(=O)CNC(=O)[C@H](Cc1cnc[nH]1)NC(=O)[C@H](CC(C)C)NC(=O)[C@H](CO)NC(=O)CN)C(=O)N[C@@H](Cc1ccc(O)cc1)C(=O)N[C@@H](CCCN=C(N)N)C(=O)N[C@@H](Cc1ccc(O)cc1)C(=O)N[C@@H](CC(C)C)C(=O)N[C@@H](CCCCN)C(=O)N[C@@H](CC(N)=O)C(=O)N[C@@H](CCSC)C(=O)N[C@H](C(=O)N[C@@H](CC(C)C)C(=O)N[C@@H](CC(N)=O)C(=O)N[C@@H](CC(C)C)C(=O)N[C@@H](Cc1ccccc1)C(N)=O)C(C)C` [GSLHGFMYRYLKNMVLNLF], for which the MIC in [7] was not below 64 µM; in assay [8] it was 8 µM (≈ 18.4 µg/mL); in assay [9], 2.67 µM (≈ 6.15 µg/mL); in [10], 8 µM (≈ 18.4 µg/mL); in assay [11], 32 µM (≈ 73.7 µg/mL); in [12], 8 µM (≈ 18.4 µg/mL). Besides, the MIC in assay [13] was not below 32 µM; in assay [14] it was 16 µM (≈ 36.8 µg/mL); in [15], not below 128 µM; in [3], 32 µM (≈ 73.7 µg/mL); in [16], 16 µM (≈ 36.8 µg/mL); in assay [17], 4 µM (≈ 9.21 µg/mL). Further, the MIC in [18] is 4 µM (≈ 9.21 µg/mL); in [19], not below 32 µM; in assay [20], not below 64 µM.
For the compound `CC[C@H](C)[C@H](N)C(=O)N[C@@H](Cc1cnc[nH]1)C(=O)N[C@@H](CCCCN)C(=O)N[C@@H](Cc1ccccc1)C(=O)N[C@@H](Cc1c[nH]c2ccccc12)C(=O)N[C@@H](CCCN=C(N)N)C(=O)NCC(=O)NCC(=O)N[C@@H](CCCN=C(N)N)C(=O)N[C@@H](Cc1c[nH]c2ccccc12)C(=O)N[C@@H](Cc1ccccc1)C(=O)N[C@@H](CCCCN)C(=O)N[C@@H](Cc1cnc[nH]1)C(=O)N[C@H](C(N)=O)[C@@H](C)CC` [IHKFWRGGRWFKHI], the MIC in assay [21] was 16 µM (≈ 29.9 µg/mL); in assay [22], 32 µM (≈ 59.8 µg/mL); in [11], 8 µM (≈ 14.9 µg/mL); in [23], 8 µM (≈ 14.9 µg/mL); in assay [3], 16 µM (≈ 29.9 µg/mL); in assay [24], 8 µM (≈ 14.9 µg/mL). Moreover, the MIC is not below 64 µM in assay [25], 16 µM (≈ 29.9 µg/mL) in assay [26], 32 µM (≈ 59.8 µg/mL) in assay [27] and 32 µM (≈ 59.8 µg/mL) in assay [28].
Regarding `CC(C)C[C@H](NC(=O)[C@H](Cc1ccc(O)cc1)NC(=O)[C@@H]1CCCN1C(=O)[C@@H]1CCCN1C(=O)[C@H](CCCN=C(N)N)NC(=O)[C@@H]1CCCN1C(=O)[C@H](CCCCN)NC(=O)[C@H](CCCCN)NC(=O)[C@@H](N)CCCCN)C(=O)N1CCC[C@H]1C(=O)N[C@@H](CCCN=C(N)N)C(=O)N1CCC[C@H]1C(=O)N[C@@H](CCCN=C(N)N)C(=O)N1CCC[C@H]1C(=O)N1CCC[C@H]1C(=O)O` [KKKPRPPYLPRPRPP], the MIC in assay [29] is 16 µM (≈ 29.2 µg/mL); in assay [30], 1 µM (≈ 1.83 µg/mL); in [31] it was 2 µM (≈ 3.65 µg/mL); in assay [32], 0.5 µM (≈ 0.914 µg/mL); in [33] it was 8 µM (≈ 14.6 µg/mL); in [28] it was more than 64 µM.
On to `NC(=O)[C@H](CCCN=C(N)N)NC(=O)[C@H](Cc1c[nH]c2ccccc12)NC(=O)[C@H](Cc1c[nH]c2ccccc12)NC(=O)[C@H](CCCN=C(N)N)NC(=O)[C@H](CCCN=C(N)N)NC(=O)[C@H](Cc1c[nH]c2ccccc12)NC(=O)[C@H](CCCN=C(N)N)NC(=O)[C@H](CCCN=C(N)N)NC(=O)[C@H](Cc1c[nH]c2ccccc12)NC(=O)[C@H](Cc1c[nH]c2ccccc12)NC(=O)[C@@H](N)CCCN=C(N)N` [RWWRRWRRWWR], for which the MIC in [34] was determined as 4 µM (≈ 7.54 µg/mL); in [35], 2 µM (≈ 3.77 µg/mL); in assay [36], 16 µM (≈ 30.2 µg/mL); in assay [37] it was 2 µM (≈ 3.77 µg/mL); in [38] it was 8 µM (≈ 15.1 µg/mL); in assay [39], 4 µM (≈ 7.54 µg/mL). In addition, the MIC in [32] was 8 µM (≈ 15.1 µg/mL); in assay [18], 8 µM (≈ 15.1 µg/mL); in [26], 4 µM (≈ 7.54 µg/mL); in assay [27] it was 4 µM (≈ 7.54 µg/mL); in assay [28], 4 µM (≈ 7.54 µg/mL).
In the case of `CC(C)C[C@H](NC(=O)[C@H](Cc1ccccc1)NC(=O)[C@H](CCCCN)NC(=O)[C@@H](N)CO)C(=O)N[C@@H](CO)C(=O)N[C@@H](CCCCN)C(=O)N[C@@H](CCCCN)C(=O)N1CCC[C@H]1C(=O)N[C@@H](CCCCN)C(=O)N[C@@H](CCCCN)C(=O)N[C@@H](CC(C)C)C(=O)N[C@@H](Cc1ccccc1)C(=O)N[C@@H](Cc1c[nH]c2ccccc12)C(=O)N[C@@H](Cc1ccccc1)C(=O)N[C@@H](CCCN=C(N)N)C(=O)N[C@@H](C)C(=O)O` [SKFLSKKPKKLFWFRA], the MIC in [40] is not below 63.6 µM.

Values taken from DBAASP.
